Test results taken from publication PMC9102502, “The Influence of Selected Antipsychotic Drugs on Biochemical Aspects of Alzheimer’s Disease” (International Journal of Molecular Sciences, 2022).

Columns and labels:
[1] = test system: HUVEC cells; assay: WST-1 viability under AAPH-induced oxidative stress, HUVEC; type: cell-based, human; settings: AAPH 17.5 mmol/L; for viability of HUVEC under AAPH: relative to pure medium control
Procedure: (§1) WST-1 assay (Takara, Takara Bio Europe, Saint-Germain-en-Laye, France) was used to assess the effects of antipsychotics on the growth of HUVEC and astrocytes. The experiments were conducted as described previously. HUVEC were seeded at a density of 7500 cells, and astrocytes at 5000 cells per well on 96-well microplates and cultured for 24 h followed by treatment with compounds at ½ × TPCmax and TPCmax or pure medium as a control (v = 100 μL) for another 24 h (37 °C, 5% CO2). Subsequently, the cells were washed with culture medium (100 μL) and WST-1 reagent diluted in medium (10 μL of reagent + 90 μL of medium) was added. The plates were incubated at 37 °C in 5% CO2 for another 90 min for HUVEC and 60 min for astrocytes. The absorbance was read at 450 nm using a microplate reader (iMARK, Bio-Rad, Hercules, CA, USA). The cells viability was expressed as a percentage of the control samples which constituted 100% viability.
(§2) Moreover, the WST-1 assay was used to evaluate potential protective effects of antipsychotics on the growth of HUVEC and astrocytes under conditions of AAPH-induced oxidative stress. The experimental conditions were the same as in viability studies. AA at the final concentration of 10 μg/mL was used as an antioxidant control. After reaching the confluence, the antipsychotics were added at concentrations equaling ½ × TPCmax and TPCmax. After 1 h incubation under standard conditions, 50 μL AAPH was added to the wells containing tested compounds or AA. The AAPH concentration was chosen on the basis of preliminary experiments—17.5 mmol/L in HUVEC experiments, and 15.0 mmol/L in the case of astrocytes.

[2] = test system: astrocytes; assay: WST-1 viability under AAPH-induced oxidative stress, astrocytes; type: cell-based, human
Procedure: as §1, §2

[3] = target: T1, recombinant human β-amyloid (1–42) (Homo sapiens, UniProt P05067); assay: Beta-amyloid aggregation, Thioflavin T fluorescence; type: biochemical
T1 construct: recombinant human β-amyloid (1–42; ultrapure); purchased Sigma-Aldrich (St. Louis, MO, USA)
Procedure: Aβ42 peptide was dissolved in DMSO and left to hydrate for a few minutes. The solution was centrifuged at 10,000 rpm for 5 min at 4 °C to separate any precipitated material. The solution at a concentration of 220 μmol/L was stored in small aliquots at a temperature of −30 °C and before each experiment it was restored at 37 °C for 15 min. Test samples containing Aβ42 solution at the final concentration of 20 μmol/L was incubated with antipsychotics at concentrations equaling their TPC and 1/2 × TPC (v = 10 µL). The final volume of the test samples was 100 μL. The positive control constituted a sample of Aβ42 peptide, whereas the negative control contained tannic acid at the final concentrations of 0.1 µmol/L and 10 µmol/L. The fibrillation reaction was set up by addition of thioflavin ThT dye at a concentration of 5 µmol/L. The fluorescence intensity was measured at room temperature with Ex/Em = 440 nm/484 nm (Synergy H1; BioTek, Winooski, VT, USA). The measurements of fluorescence intensity expressed as relative fluorescence units (RFU) were taken at 10, 30, 60 and 90 min and then after 24 and 48 h. The fluorescence intensity measured for control equaled 100% of Aβ aggregation and it was used to estimate the inhibitory properties of the tested antipsychotics.

[4] = target: BuChE (Homo sapiens, UniProt P06276); assay: Synergism of antipsychotics with donepezil/rivastigmine (binary mixtures), BuChE; settings: ComboSyn;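 note: combination index derived by median-effect analysis of combined drug effects on the cholinesterase, with values below 1 meaning synergism, exactly 1 additivity and above 1 antagonism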
Excerpt: (§6) In turn, the concentrations of antipsychotics were constant in every measurement, and were chosen on the basis of estimated therapeutic plasma concentrations.
(§7) Automatic simulation of synergism and antagonism at all doses or effect levels is possible by computer software, based on algorithms. Calculation of the combination index (CI) and isobologram analyses enable to quantitatively determine drug interactions, where CI < 1, =1 and >1 indicate synergism, additive effect and antagonism, respectively. […] The software also allowed us to display the dose–effect curve, the median–effect plot and the dose-reduction index (DRI) plot [36].

[5] = target: AChE (Homo sapiens, UniProt P22303); assay: Synergism of antipsychotics with donepezil/rivastigmine (binary mixtures), AChE; settings: for CI (combination index), AChE: ComboSyn;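 for all read-outs here: antipsychotic concentration kept fixed across all measurements, selected from estimated therapeutic plasma levels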
Excerpt: as §6, §7

[6] = target: T2, human plasma butyrylcholinesterase (Homo sapiens, UniProt P06276); assay: BuChE inhibition, modified Ellman's method; type: biochemical
T2 construct: The solution of plasma 200-fold diluted with 0.9% NaCl; from tissue; host or cells: citrated plasma from blood of healthy human donors
Procedure: (§3) The activity of both cholinesterases (AChE and BuChE) were assessed spectrophotometrically according to the Ellman’s method with some modifications by Worek et al.. This test development included experimental determination of the optimal testing conditions. For all measurements, 37 °C was used as the best temperature for enzymatic determinations in material of human origin.
(§4) The solution of plasma 200-fold diluted with 0.9% NaCl and solution of hemolyzed erythrocytes diluted 400-fold with 0.9% were incubated (37 °C, 15 min) with 5 μL DTNB (0.01 mol/L) and 10 μL tested compound at a wider range of concentration than the therapeutic range in order to assess the overall effect of the compound on human esterases (AChE and BuChE). The controls without antipsychotics, containing only DTNB and diluted plasma or diluted solution of hemolyzed erythrocytes, were prepared. […] The final volume of a sample was 500 μL. […] The maximal velocity of the reaction was determined on the basis of changes in absorbance over time.
(§5) AChE SI (selectivity index) was calculated by using the following formula: SI = IC50 of BuChE/IC50 of AChE. However, BuChE SI was defined as IC50 of AChE/IC50 of BuChE. Maximal velocity (Vmax) and the Michaelis constant (Km) were calculated with the use of linear regression—according to the Hanes–Woolf plot.

[7] = target: T3, human erythrocyte acetylcholinesterase (Homo sapiens, UniProt P22303); assay: AChE inhibition, modified Ellman's method; type: biochemical
T3 construct: solution of hemolyzed erythrocytes diluted 400-fold; from tissue; host or cells: hemolyzed erythrocytes from blood of healthy human donors
Procedure: as §3, §4, §5

[8] = donepezil 2 μmol/L + antipsychotic at TPCmax
[9] = donepezil 5 μmol/L + antipsychotic at TPCmax
[10] = donepezil 10 μmol/L + antipsychotic at TPCmax
[11] = donepezil 20 μmol/L + antipsychotic at TPCmax
[12] = donepezil 50 μmol/L + antipsychotic at TPCmax
[13] = donepezil 100 μmol/L + antipsychotic at TPCmax
[14] = rivastigmine 0.05 μmol/L + antipsychotic at TPCmax
[15] = rivastigmine 0.1 μmol/L + antipsychotic at TPCmax
[16] = rivastigmine 0.25 μmol/L + antipsychotic at TPCmax
[17] = rivastigmine 0.5 μmol/L + antipsychotic at TPCmax
[18] = rivastigmine 0.75 μmol/L + antipsychotic at TPCmax
[19] = rivastigmine 1 μmol/L + antipsychotic at TPCmax
[20] = rivastigmine 2.5 μmol/L + antipsychotic at TPCmax
[21] = rivastigmine 5 μmol/L + antipsychotic at TPCmax
[22] = donepezil 0.005 μmol/L + antipsychotic at TPCmax, CI < 1 synergism, > 1 antagonism
[23] = donepezil 0.01 μmol/L + antipsychotic at TPCmax
[24] = donepezil 0.02 μmol/L + antipsychotic at TPCmax
[25] = donepezil 0.05 μmol/L + antipsychotic at TPCmax
[26] = donepezil 0.1 μmol/L + antipsychotic at TPCmax
[27] = rivastigmine 10 μmol/L + antipsychotic at TPCmax
[28] = rivastigmine 15 μmol/L + antipsychotic at TPCmax
[29] = rivastigmine 25 μmol/L + antipsychotic at TPCmax
[30] = rivastigmine 40 μmol/L + antipsychotic at TPCmax
[31] = rivastigmine 75 μmol/L + antipsychotic at TPCmax
[32] = rivastigmine 100 μmol/L + antipsychotic at TPCmax

Sequence of AChE (P22303 32-617 isoform P22303-2 limits assumed): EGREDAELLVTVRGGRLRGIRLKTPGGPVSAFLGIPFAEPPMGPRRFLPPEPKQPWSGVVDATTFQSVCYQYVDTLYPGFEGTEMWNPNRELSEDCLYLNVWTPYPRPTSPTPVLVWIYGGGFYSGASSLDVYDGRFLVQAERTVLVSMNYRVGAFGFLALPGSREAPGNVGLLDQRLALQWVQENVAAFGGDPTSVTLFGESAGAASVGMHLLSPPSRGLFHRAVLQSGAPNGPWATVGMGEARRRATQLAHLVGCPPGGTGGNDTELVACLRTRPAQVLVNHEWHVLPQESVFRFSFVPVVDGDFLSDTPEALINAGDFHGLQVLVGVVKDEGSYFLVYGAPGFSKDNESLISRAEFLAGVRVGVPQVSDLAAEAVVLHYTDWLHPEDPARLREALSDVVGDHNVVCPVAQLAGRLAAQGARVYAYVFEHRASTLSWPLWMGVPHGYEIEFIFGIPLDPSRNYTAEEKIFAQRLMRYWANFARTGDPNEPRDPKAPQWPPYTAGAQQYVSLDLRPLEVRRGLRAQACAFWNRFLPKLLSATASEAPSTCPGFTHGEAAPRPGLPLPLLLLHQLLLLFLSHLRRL
Sequence of BuChE (P06276 29-602): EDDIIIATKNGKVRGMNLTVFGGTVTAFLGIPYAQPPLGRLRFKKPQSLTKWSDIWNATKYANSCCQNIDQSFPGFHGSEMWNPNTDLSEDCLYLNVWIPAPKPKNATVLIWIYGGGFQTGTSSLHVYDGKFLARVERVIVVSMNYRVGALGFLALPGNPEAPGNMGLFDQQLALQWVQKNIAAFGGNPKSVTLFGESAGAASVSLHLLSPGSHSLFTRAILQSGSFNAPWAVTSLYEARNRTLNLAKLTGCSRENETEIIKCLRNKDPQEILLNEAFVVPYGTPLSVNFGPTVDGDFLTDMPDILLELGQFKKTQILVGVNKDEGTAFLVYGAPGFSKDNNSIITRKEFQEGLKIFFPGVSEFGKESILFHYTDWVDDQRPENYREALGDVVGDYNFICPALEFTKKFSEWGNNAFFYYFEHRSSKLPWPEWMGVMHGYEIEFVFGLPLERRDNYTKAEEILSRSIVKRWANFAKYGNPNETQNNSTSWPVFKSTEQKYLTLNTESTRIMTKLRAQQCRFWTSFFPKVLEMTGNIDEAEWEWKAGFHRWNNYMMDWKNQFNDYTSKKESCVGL
T2 sequence (P06276 29-602): as above
T3 sequence (P22303 32-617 isoform P22303-2 limits assumed): as the sequence (P22303 32-617 isoform P22303-2 limits assumed) above
T1 sequence (P05067 672-713 limits assumed): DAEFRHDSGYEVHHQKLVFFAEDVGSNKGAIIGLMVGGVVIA

Compound | CI (combination index), BuChE [4, 8] | CI (combination index), BuChE [4, 9] | CI (combination index), BuChE [4, 10] | CI (combination index), BuChE [4, 11] | CI (combination index), BuChE [4, 12] | CI (combination index), BuChE [4, 13] | CI (combination index), BuChE [4, 14] | CI (combination index), BuChE [4, 15] | CI (combination index), BuChE [4, 16] | CI (combination index), BuChE [4, 17] | CI (combination index), BuChE [4, 18] | CI (combination index), BuChE [4, 19] | CI (combination index), BuChE [4, 20] | CI (combination index), BuChE [4, 21] | CI (combination index), AChE [5, 22] | CI (combination index), AChE [5, 23] | CI (combination index), AChE [5, 24] | CI (combination index), AChE [5, 25] | CI (combination index), AChE [5, 26] | CI (combination index), AChE [5, 21] | further results
O=C1O[C@H]([C@@H](O)CO)C(O)=C1O [AA, ascorbic acid] | – | – | – | – | – | – | – | – | – | – | – | – | – | – | – | – | – | – | – | – | viability at 10 µg/mL ([1]; Homo sapiens, HUVEC, 10 μg/mL): 81 ± 3.4%; viability at 10 µg/mL ([2]; Homo sapiens, Astrocyte, 10 μg/mL, AAPH 15 mmol/L): 72.9%
O=C(CCCN1CCC(O)(c2ccc(Cl)cc2)CC1)c1ccc(F)cc1 [Haloperidol, haloperidol] | 0.71 | 0.67 | 0.79 | 0.77 | 0.84 | 0.87 | 0.61 | 0.44 | 0.67 | 0.87 | 1.06 | 1.03 | 1.19 | 1.22 | > 2.50 | > 2.50 | > 2.50 | 0.37 | 0.09 | 0.39 | effect on Aβ aggregation within 90 min of incubation ([3]; both tested concentrations (½ TPC and TPC)): ceases to significantly inhibit; CI (combination index), AChE [5, 27]: 0.55; CI (combination index), AChE [5, 28]: 0.60; CI (combination index), AChE [5, 29]: 0.70; CI (combination index), AChE [5, 30]: 0.71; CI (combination index), AChE ([5]; rivastigmine 50 μmol/L + antipsychotic at TPCmax): 0.79; CI (combination index), AChE [5, 31]: 0.86; CI (combination index), AChE [5, 32]: 0.82; decrease of BuChE activity ([6]; 100 µg/L): 9.6 ± 2.3%; BuChE reaction velocity ([6]; 100 µg/L, control 0.252 ± 0.022 A/min): 0.228 ± 0.021 A/min; effect on BuChE activity ([6]; therapeutic concentrations): do not affect; effect on AChE activity ([7]; therapeutic concentrations): do not affect
OC1(c2ccc(Cl)c(C(F)(F)F)c2)CCN(CCCC(c2ccc(F)cc2)c2ccc(F)cc2)CC1 [Penfluridol, penfluridol] | 1.21 | 0.98 | 1.04 | 1.03 | 1.14 | 1.21 | 0.64 | 0.68 | 0.79 | 1.01 | 1.08 | 1.13 | 1.28 | 1.17 | 0.79 | 0.80 | 0.93 | 0.89 | 0.90 | > 2.50 | effect on Aβ aggregation within 10–90 min ([3]; 25 µg/L, at any of these time points): does not inhibit; Effect on IC50 AChE of rivastigmine ([5]; binary mixture vs pure rivastigmine ([…]), ↓ lower, ↑ higher IC50, - no change): does not affect; CI (combination index), AChE [5, 27]: 0.75; CI (combination index), AChE [5, 28]: 0.73; CI (combination index), AChE [5, 29]: 0.92; CI (combination index), AChE [5, 30]: 0.97; CI (combination index), AChE [5, 31]: 1.06; CI (combination index), AChE [5, 32]: 1.06; viability of HUVEC under AAPH ([1]; TPC (bromperidol 25 μg/L, quetiapine 400 μg/L)): 82.9%; viability of HUVEC under AAPH ([1]; ½ × TPC (bromperidol 12.5 μg/L, quetiapine 200 μg/L)): 80.5%; astrocyte viability compared with the control (pure AAPH) ([2]; benperidol 5 and 10 μg/L, penfluridol 12.5 μg/L, pimozide 15 μg/L, promazine 25 and 50 μg/L): statistically significant increase; AChE reaction velocity [7]: 0.226 ± 0.012 A/min
